# Target: T1, HCV-NS5b (Hepatitis C virus genotype 1b, UniProt Q9WMX2)
# T1 construct: (His)6 (C); made in house; host or cells: XL-1 cells (E. coli), IPTG-inducible plasmid, nickel-NTA purification
# Assay: HCV-NS5b enzyme assay (incorporation of radiolabeled UTP)
# Type: biochemical
# Settings: for inhibition at 33 µM: enzyme inhibition at compound concentration of 33 uM; for inhibition at 100 µM: read-out: % inh@100, enzyme inhibition at compound concentration of 100 uM
# Outline: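 His6-tagged NS5b lacking the C-terminal 21 residues, expressed in XL-1 and Ni-NTA purified. Reaction at pH 7.5 with 5 mM MgCl2, 10 μM each NTP including [3H]-UTP and biotinylated HCV heteropolymeric template, 2 h at 37° C; SPA read-out; % inhibition at 100 and 33 uM versus no-compound control, background subtracted.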
SMILES,inhibition at 33 µM [%],inhibition at 100 µM [%]
"O=C(O)c1ccc2c(c1)nc(-c1ccc3nc(-c4cc(C(=O)N5CCCC5)ccc4-c4ccc(F)cc4)ccc3c1)n2C1CCCCC1 [Compound 549, 1-Cyclohexyl-2-{2-[4′-fluoro-4-(pyrrolidine-1-carbonyl)biphen-2-yl]quinolin-6-yl}-1H-benzimidazole-5-carboxylic acid]",100,102
"COc1ccc(-c2ccc(C#N)cc2)c(-c2ccc3cc(-c4nc5cc(C(=O)O)ccc5n4C4CCCCC4)ccc3n2)c1 [Compound 365, 2-[2-(4′-cyano-4-methoxy-biphen-2-yl)-quinolin-6-yl]-1-cyclohexyl-1H-benzoimidazole-5-carboxylic acid]",102,103
"O=C(N[C@@H](Cc1c[nH]c2ccc(O)cc12)C(=O)O)c1ccc2c(c1)nc(-c1ccc3nc(-c4ccccc4)cnc3c1)n2C1CCCCC1 [Compound 234, 2-{[1-Cyclohexyl-2-(2-phenyl-quinoxalin-6-yl)-1H-benzoimidazole-5-carbonyl]-amino}-3-(5-hydroxy-1H-indol-3-yl)-propionic acid]",98.6,100
"Cc1cc(-c2ccccc2)nc2ccc(-c3nc4cc(C(=O)O)ccc4n3C3CCCCC3)cc12 [Compound 498, 1-Cyclohexyl-2-(4-methyl-2-phenyl-quinolin-6-yl)-1H-benzoimidazole-5-carboxylic acid]",98.5,100
"O=C(O)c1ccc2c(c1)nc(-c1ccc3nc(-c4ccc(N5CCOCC5)cc4)ccc3c1)n2C1CCCCC1 [Compound 429, 1-cyclohexyl-2-[2-(4-morpholin-4-yl-phenyl)-quinolin-6-yl]-1H-benzoimidazole-5-carboxylic acid]",96.2,101
"O=C(O)c1ccc2c(c1)nc(-c1ccc3nc(-c4cc[nH]c4)ccc3c1)n2C1CCCCC1 [Compound 432, 1-cyclohexyl-2-[2-(1H-pyrrol-3-yl)-quinolin-6-yl]-1H-benzoimidazole-5-carboxylic acid]",88.9,96.4
"O=C(O)c1ccc2c(c1)nc(-c1ccc3nc(-c4ccc5c(c4)OCO5)ccc3c1)n2C1CCCCC1 [Compound 412, 2-(2-benzo[1,3]dioxol-5-yl-quinolin-6-yl)-1-cyclohexyl-1H-benzoimidazole-5-carboxylic acid]",98.4,100
"O=C(O)c1ccc2c(c1)nc(-c1ccc3nc(-c4cc(O)ccc4-c4ccccc4)ccc3c1)n2C1CCCCC1 [Compound 487, 1-Cyclohexyl-2-[2-(4-hydroxy-biphen-2-yl)-quinolin-6-yl]-1H-benzoimidazole-5-carboxylic acid]",102,101
"COc1ccc(-c2ccc(Cl)cc2)c(-c2ccc3cc(-c4nc5cc(C(=O)O)ccc5n4C4CC(C)CC(C)(C)C4)ccc3n2)c1 (stereo not drawn) [Compound 555, 2-[2-(4′-chloro-4-methoxy-biphen-2-yl)-quinolin-6-yl]-1-(3,3,5-trimethyl-cyclohexyl)-1H-benzoimidazole-5-carboxylic acid]",101,101
"Cc1nc(-c2ccc(Cl)cc2)sc1-c1ccc2cc(-c3nc4cc(C(=O)O)ccc4n3C3CCCCC3)ccc2n1 [Compound 416, 2-{2-[2-(4-chloro-phenyl)-4-methyl-thiazol-5-yl]-quinolin-6-yl}-1-cyclohexyl-1H-benzoimidazole-5-carboxylic acid]",101,103
"CCOc1ccc([N+](=O)[O-])cc1-c1ccc2cc(-c3nc4cc(C(=O)O)ccc4n3C3CCCCC3)ccc2n1 [Compound 404, 1-cyclohexyl-2-[2-(2-ethoxy-5-nitro-phenyl)-quinolin-6-yl]-1H-benzoimidazole-5-carboxylic acid]",102,101
"COc1ccc(-c2ccc(Cl)cc2)c(-c2ccc3cc(-c4[nH]c5cc(C(=O)O)ccc5c4C4CCCCC4)ccc3n2)c1 [Compound 536, 2-[2-(4′-Chloro-4-methoxy-biphen-2-yl)-quinolin-6-yl]-3-cyclohexyl-1H-indole-6-carboxylic acid]",97.5,98.9
"O=C(O)c1ccc2c(c1)nc(-c1ccc3nc(-c4ccc(Cl)c(Cl)c4)ccc3c1)n2C1CCCCC1 [Compound 508, 1-cyclohexyl-2-[2-(3,4-dichloro-phenyl)-quinolin-6-yl]-1H-benzoimidazole-5-carboxylic acid]",98.9,98.9
"O=C(O)c1ccc2c(c1)nc(-c1ccc3nc(-c4cc5cccc(O)c5o4)ccc3c1)n2C1CCCCC1 [Compound 411, 1-cyclohexyl-2-[2-(7-hydroxy-benzofuran-2-yl)-quinolin-6-yl]-1H-benzoimidazole-5-carboxylic acid]",78.1,91.5
"CCC(CC)n1c(-c2ccc3nc(-c4cc(OC)ccc4-c4ccc(Cl)cc4)ccc3c2)nc2cc(C(=O)O)ccc21 [Compound 564, 2-[2-(4′-Chloro-4-methoxy-biphen-2-yl)-quinolin-6-yl]-1-(1-ethyl-propyl)-1H-benzoimidazole-5-carboxylic acid]",102,101
"COc1ccc(-c2ccc(Cl)cc2)c(-c2ccc3cc(-c4nc5cc(C(=O)O)ccc5n4C4CCCCC4)ccc3n2)c1 [Compound 356, 2-[2-(4′-Chloro-4-methoxy-biphen-2-yl)-quinolin-6-yl]-1-cyclohexyl-1H-benzoimidazole-5-carboxylic acid]",101,100
"CNC(=O)c1ccc(-c2ccc(Cl)cc2)c(-c2ccc3cc(-c4nc5cc(C(=O)O)ccc5n4C4CCCCC4)ccc3n2)c1 [Compound 378, 2-[2-(4′-chloro-4-methylcarbamoyl-biphen-2-yl)-quinolin-6-yl]-1-cyclohexyl-1H-benzoimidazole-5-carboxylic acid]",100,101
"Cc1c(OCc2ccccc2)ccc(-c2ccc3cc(-c4nc5cc(C(=O)O)ccc5n4C4CCCCC4)ccc3n2)c1O [Compound 462, 2-[2-(4-benzyloxy-2-hydroxy-3-methyl-phenyl)-quinolin-6-yl]-1-cyclohexyl-1H-benzoimidazole-5-carboxylic acid]",98.2,101
"COc1ccc(-c2ccc(Cl)cc2)c(-c2ccc3cc(-c4nc5cc(C(=O)O)ccc5n4CCC(C)C)ccc3n2)c1 [Compound 532, 2-[2-(4′-chloro-4-methoxy-biphen-2-yl)-quinolin-6-yl]-1-(3-methyl-butyl)-1H-benzoimidazole-5-carboxylic acid]",99.6,98.8
"O=C(O)c1ccc2c(c1)nc(-c1ccc3nc(-c4cc(OCC(=O)N5CCCC5)ccc4-c4ccccc4)ccc3c1)n2C1CCCCC1 [Compound 360, 1-cyclohexyl-2-{2-[4-(2-oxo-2-pyrrolidin-1-yl-ethoxy)-biphen-2-yl]-quinolin-6-yl}-1H-benzoimidazole-5-carboxylic acid]",97.6,97.9
"O=C(O)c1ccc2c(c1)nc(-c1ccc3nc(-c4ccc(F)cc4)c(-c4ccc(F)cc4)nc3c1)n2C1CCCCC1 [Compound 409, 2-[2,3-Bis-(4-fluorophenyl)quinoxalin-6-yl]-1-cyclohexyl-1H-benzimidazole-5-carboxylic acid]",97.9,99.9
"O=C(O)c1ccc2c(c1)nc(-c1ccc3nc(-c4cccc5ccccc45)ccc3c1)n2C1CCCCC1 [Compound 357, 1-cyclohexyl-2-(2-naphthalen-1-yl-quinolin-6-yl)-1H-benzoimidazole-5-carboxylic acid]",98.8,101
"O=C(O)c1ccc2c(c1)nc(-c1ccc3nc(-c4cn(-c5cccnc5Cl)c(=O)[nH]c4=O)ccc3c1)n2C1CCCCC1 [Compound 431, 2-{2-[1-(2-chloro-pyridin-3-yl)-2,4-dioxo-1,2,3,4-tetrahydro-pyrimidin-5-yl]-quinolin-6-yl}-1-cyclohexyl-1H-benzoimidazole-5-carboxylic acid]",95.3,96.4
"COc1ccc(-c2ccc(C(=O)O)cc2)c(-c2ccc3cc(-c4nc5cc(C(=O)O)ccc5n4C4CCCCC4)ccc3n2)c1 [Compound 421, 2-[2-(4′-carboxy-4-methoxy-biphen-2-yl)-quinolin-6-yl]-1-cyclohexyl-1H-benzoimidazole-5-carboxylic acid]",100,100
"O=C(O)c1cnc2c(c1)nc(-c1ccc3nc(-c4cc(O)ccc4-c4ccc(Cl)cc4)ccc3c1)n2C1CCCCC1 [Compound 535, 2-[2-(4′-chloro-4-hydroxy-biphen-2-yl)-quinolin-6-yl]-3-cyclohexyl-3H-imidazo[4,5-b]pyridine-6-carboxylic acid]",101,100
"COc1ccc(-c2cnc(OC)nc2OC)c(-c2ccc3cc(-c4nc5cc(C(=O)O)ccc5n4C4CCCCC4)ccc3n2)c1 [Compound 484, 1-cyclohexyl-2-{2-[2-(2,4-dimethoxy-pyrimidin-5-yl)-5-methoxy-phenyl]-quinolin-6-yl}-1H-benzoimidazole-5-carboxylic acid]",99.6,98.3
"O=C(O)c1ccc2c(c1)nc(-c1ccc3nc(-c4cc(OCCCN5CCCC5)ccc4-c4ccc(Cl)cc4)ccc3c1)n2C1CCCCC1 [Compound 447, 2-{2-[4′-Chloro-4-(3-pyrrolidin-1-yl-propoxy)-biphen-2-yl]-quinolin-6-yl}-1-cyclohexyl-1H-benzoimidazole-5-carboxylic acid]",97.8,94.9

# From US7511145B2 (Genelabs Technologies, Inc., priority 2003, dated 2009)
